How the values were obtained:
[1] = PAMPA-BBB assay
Text: Thus, to reduce attrition in the development process, the evaluation of BBB penetration at a very early drug discovery stage is of crucial importance. In light of this, the ability of the previously selected compounds to cross the BBB was predicted by a parallel artificial membrane permeability assay (PAMPA)-BBB,[41] a high-throughput technique widely used as an indicator of a molecule’s passive diffusion through the BBB. Six commercially available drugs were used to validate the assay.
PAMPA (the parallel artificial membrane permeability assay) is a high-throughput screening tool applicable for the prediction of the passive transport of potential drugs across the BBB.[41] In this study, it has been used as a non-cell-based in vitro assay carried out in a coated 96-well membrane filter. The filter membrane of the donor plate was coated with PBL (Polar Brain Lipid, Avanti) in dodecane (4 μL of 20 mg/mL PBL in dodecane) and the acceptor well was filled with 300 μL of phosphate buffer saline, (PBS pH 7.4; VA). The tested compounds were dissolved first in DMSO and then diluted with PBS pH 7.4 to reach the final concentrations of 50–500 μM in the donor well. […] Then, 300 μL of the donor solution (VD) was added to the donor wells and the donor filter plate was carefully put on the acceptor plate so that the coated membrane was “in touch” with both donor solution and acceptor buffer. In principle, the test compound diffuses from the donor well through the polar brain lipid membrane (area = 0.28 cm^2) to the acceptor well. The concentrations of the tested compound in both donor and the acceptor wells were assessed after 3, 4, 5, and 6 h of incubation in quadruplicate using a UV plate reader, Synergy HT (Biotek) at the maximum absorption wavelength of each compound (n=3). In addition to that, solution of the theoretical compound concentration, simulating the equilibrium state established if the membrane were ideally permeable, was prepared and assessed as well. The concentrations of the compounds in the donor and acceptor wells and the equilibrium concentration were calculated from the standard curve and expressed as the permeability (Pe) according to the equation[41] [drawing 1] where [drawing 2]

[2] = system: cerebellar granule neurons (CGNs); experiment: Neurotoxicity on primary cultures of cerebellar granule neurons (nuclei counting after Hoechst staining); conditions: differentiated CGNs, 24 h, percentage of healthy nuclei on total nuclei, mean ± SEM of three experiments
[3] = system: Arctic Aβ42 Drosophila flies; experiment: Climbing assay in Arctic Aβ42 Drosophila flies; conditions: 20 μM in fly food
Protocol: Thus, we performed behavioral tests to assess the climbing abilities of Aβ42Drosophila flies with and without treatment with 22 (20 μM), 23 (20 μM), and doxycycline (50 μM), compared to control flies.
The transactivating protein GAL4 is placed under the control of a specific promoter, with its own spatial and temporal patterns, in this case, Elav, whereas the upstream activation sequence (UAS) localized upstream, the locus controlled by the UAS-Gal4; in our study, UAS expresses construct for the E22G variant of Aβ42 (Arctic Aβ42) (AlzArc2).[56],[64] Around 150 flies (half female/male) for each compound tested were collected and divided into groups of 25 flies. At the top of the media, 25 μL of doxycycline (50 μM), 22 (20 μM), or 23 (20 μM) were added fresh anytime the flies were flipped.
Briefly, males and females 25 per vial were kept at 25 °C. The climbing test was performed on days 7, 14, and 21 after birth. […] The protocol was repeated 10 times at 5-min intervals.

[4] = target: T1, Aβ42 (Homo sapiens, UniProt P05067); experiment: Inhibition of Aβ42 aggregation in intact E. coli cells overexpressing Aβ42 (ThS fluorescence); format: cell-based, Escherichia coli
T1 construct: expressed in transfected cells; host or cells: Escherichia coli BL21 (DE3), pET28a
T1 sequence (P05067 672-713 limits assumed): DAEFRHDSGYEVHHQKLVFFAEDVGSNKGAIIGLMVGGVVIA
Method in brief: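 E. coli BL21(DE3) expressing Met-Aβ42 grown in M9 with 250 μM ThS, induced with IPTG at OD600 0.6 alongside 10 μM compound, then overnight at 37 °C. ThS emission at 485 nm (ex 440 nm) normalised to OD600. 100% = induced cells without drug, 0% = non-induced cells.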

[5] = Solubility in the in vitro aggregation assay conditions; conditions: dedicated solubility assays
Protocol: * The results are the mean of at least two independent measurements each performed in duplicate.
1 Compounds were measured at 50 μM.
NS = not soluble in the assay conditions

Question: Which results are given for `CN(C)CCN1C(=O)S/C(=C\c2ccc3c(c2)C(C)(C)c2cc(/C=C4\SC(=O)N(CCN(C)C)C4=O)ccc2-3)C1=O` [Compound 23, (5Z,5′Z)-5,5′-((9,9-Dimethyl-9H-fluorene-2,7-diyl)bis(methanylylidene))bis(3-(2-(dimethylamino)ethyl)thiazolidine-2,4-dione)]?
Answer: Papp ([1]; PAMPA, pH 7.4): 189 ± 53.9 nm/s; BBB permeability prediction ([1]; PAMPA-BBB): predicted to passively diffuse across the BBB; CNS (+/-) ([1]; PAMPA-BBB penetration estimation): CNS + (CNS + (high BBB permeation predicted): Pe (×10-6 cm s-1) > 4.0); % survival neurotoxicity @ 10 μM [2]: 87.9 ± 3.4%; climbing abilities of Aβ42 Drosophila flies on day 21 ([3]; day 21): no difference between the treated and untreated flies; climbing abilities of Aβ42 Drosophila flies ([3]; days 7, 14, 21 post-eclosion): partially recovered phenotype that lasted until day 14; % inhibition Aβ42 aggregation @ 10 μM ([4]; intact E. coli cells, compound 10 μM, mean ± SEM of four independent experiments, 10 µM): 44.8 ± 4.7%; inhibition at 10 µM ([4]; read-out: % inhibition Aβ42 aggregation @ 10 μM, intact E. coli cells, compound 10 μM, mean ± SEM of four independent experiments): > 40%; solubility in Aβ42 ThT-based assay condition [5]: too limited to grant trustable results
